Measurements: patent US8247372B2 (University of Southampton, priority 2006, dated 2012)

Columns and labels:
[1] = system: MCF7 breast, A2780 ovarian and PC3 and LNCAP prostate cancer cells; test: CyQuant cell proliferation assay (Activity Assay 2); format: cell-based; conditions: Homo sapiens; cell line not given; read-out: Cell growth inhibition IC50
Method: Typically in this embodiment, said assay is performed using the CyQuant™ assay system (Moelcular Probes, Inc. USA).

[2] = system: HDAC (Hela Nuclear Extract); test: In vitro HDAC fluorescent activity assay (Activity Assay 1); conditions: read-out: Inhibition of HDAC activity IC50, compounds reduced with DTT prior to analysis
Method: In vitro HDAC assays were performed using a HDAC fluorescent activity assay kit (Biomol, UK) according to the manufacturer's instructions. Compounds were reduced prior to analysis; 1 mM compound was reduced with 30 mM DTT in DMSO overnight at room temperature, protected from light. Reactions were then set up in a 96-well plate. […] Serial dilutions were set up for each compound. Reactions containing Hela extract only and assay buffer only were also set up. 25 μl diluted Fluor de LYS™ substrate (100-fold in assay buffer) was added to each reaction, which were then incubated at 37° C. for 1 hour. The reaction was stopped by addition of 50 μl Fluor de LYS™ Developer (20-fold dilution in assay buffer, plus TSA diluted 100-fold). […] Inhibition of in vitro HDAC activity was determined for mean values of duplicate samples as percentages relative to HeLa extract only reactions. IC50 values were calculated using GraphPad Prism software.

[3] = system: TNFα secretion from PBMCs; test: TNF-α immunoassay in LPS-stimulated PBMCs (Activity Assay 3); conditions: normalized to 10 pg LPS alone (=100.00)
Method: TNF-α immunoassays were carried out using the Quantikine® Human TNF-α assay kit (R&D systems, Abingdon UK) according to the manufacturer's instructions. […] Compounds were added 1 hour later in volumes of 100 μl at 6× final concentration. Five hours later, lipopol ysaccharide (LSP, Sigma, Poole, UK) was added in a volume of 10 μl at 60× final concentration plates were mixed and left overnight at 37° C. 5% CO2. Plates were centrifuged and cell supernatant was transferred to a new plate. The Quantikine® assay reagents and standards were prepared according to the manufacturer instructions. The Quantikine® assay plate was prepared by adding 50 μl of assay dilutent RD1F into each well. This was followed by 200 μl of standard or 100 μl of calibrator dilutent plus 100 μl cell supernatant; this was incubated for 2 hours at room temperature (RT). The plate was washed using wash buffer 4 times. After the final wash the plate was tapped on clean paper towel to remove all residual buffer. 200 μl of TNF-α conjugate was added to each well and incubated for 1 hour at RT. The plate was then washed as before. The required amount of substrate solution was prepared by adding equal volumes of colour reagents A and B, protecting from light, 200 μl of this mix was added to each well and incubated for 20 mins at RT, protected from light. 50 μl of stop solution was added to each well in the same order as the substrate solution and the plate was read on a Biorad 680 96 well plate reader (Bio-Rad, Hemel Hempstead, UK) at 450 nm with λ correction at 570 nm. TNF-α levels were determined for mean values of duplicate samples using absorbance in nm, calibration zero values were subtracted from all results to correct for the addition of calibrator diluent in the assay.

Row | Structure (SMILES) | IC50 [1] [nM] | IC50 [2] [nM] | further results
1 | CC(C)[C@H]1NC(=O)[C@H]2CSSCC/C=C/[C@H](CC(=O)N[C@H](Cc3ccccc3)C(=O)N2)OC(=O)C[C@@H]1O [Compound 7A] | 0.07 | 3.3 | TNFα Secretion (Normalized*) ([3]; Cells + 10 pg LPS + 0.025 nM compound): 63.90; TNFα Secretion (Normalized*) ([3]; Cells + 10 pg LPS + 0.05 nM compound): 58.12; TNFα Secretion (Normalized*) ([3]; Cells + 10 pg LPS + 0.1 nM compound): 45.45; TNFα Secretion (Normalized*) ([3]; Cells + 10 pg LPS + 0.2 nM compound): 31.11; TNFα Secretion (Normalized*) ([3]; Cells + 10 pg LPS + 0.4 nM compound): 18.66; TNFα Secretion (Normalized*) ([3]; Cells + 0.025 nM compound, no LPS): −0.26; TNFα Secretion (Normalized*) ([3]; Cells + 0.05 nM compound, no LPS): −0.06; TNFα Secretion (Normalized*) ([3]; Cells + 0.1 nM compound, no LPS): −0.08; TNFα Secretion (Normalized*) ([3]; Cells + 0.2 nM compound, no LPS): −0.03; TNFα Secretion (Normalized*) ([3]; Cells + 0.4 nM compound, no LPS): 0.13
2 | C[C@H]1NC(=O)C[C@H]2/C=C/CCSSC[C@@H](NC1=O)C(=O)N[C@H](Cc1ccccc1)[C@@H](O)CC(=O)O2 [Compound 7D, (E)-(1S,5S,6R,9S,20R)-6-Benzyl-5-hydroxy-20-methyl-2-oxa-11,12-dithia-7,19,22-triaza-bicyclo[7.7.6]docos-15-ene-3,8,18,21-tetraone] | 55 | 18 | –
3 | CC(C)[C@H]1NC(=O)[C@H]2CSSCC/C=C/[C@H](CC(=O)N[C@H](Cc3cn(C(=O)OC(C)(C)C)c4ccccc34)C(=O)N2)OC(=O)C[C@@H]1O [Compound 7B, 3-((E)-(1S,5S,6R,9 S,20R)-5-Hydroxy-6-isopropyl-3,8,18,21-tetraoxo-2-oxa-11,12-dithia-7,19,22-triaza-bicyclo[7.7.6]docos-15-en-20-ylmethyl)-indole-1-carboxylic acid tert-butyl ester] | 0.65 | 436 | –
4 | CC(C)C[C@H]1NC(=O)C[C@H]2/C=C/CCSSC[C@@H](NC1=O)C(=O)N[C@H](C(C)C)C(O)CC(=O)O2 (stereo in doubt) [Compound 7C, (E)-(1S,5R,6R,9S,20R)-5-Hydroxy-20-isobutyl-6-isopropyl-2-oxa-11,12-dithia-7,19,22-triaza-bicyclo[7.7.6]docos-15-ene-3,8,18,21-tetraone] | 0.23 | 11 | –
5 | O=C1C[C@H]2/C=C/CCSSC[C@@H](NC(=O)[C@@H](Cc3ccccc3)N1)C(=O)N[C@H](Cc1ccccc1)[C@@H](O)CC(=O)O2 [Compound 7E, (E)-(1S,5S,6R,9S,20R)-6,20-dibenzyl-5-hydroxy-2-oxa-11,12-dithia-7,19,22-triaza-bicyclo[7.7.6]docos-15-ene-3,8,18,21-tetraone] | 3.2 | 30 | –
